In patent US20240239861A1, “GLUCAGON-RECEPTOR SELECTIVE POLYPEPTIDES AND METHODS OF USE THEREOF” (i2O Therapeutics, Inc., priority 2016, published 2024):
Where a SMILES comes first, the peptide text is derived from it. [ ]: non-standard residue; d: D form. Aib = CC(C)(N)C(=O)O

Experiments:
human GCGR = human GCGR (Homo sapiens, UniProt P47871); experiment: Peptide-receptor mediated cAMP accumulation (LANCE Ultra cAMP) in CHO-K1 cells transfected with human GCGR; format: cell-based; conditions: Table 3
Chain of human GCGR (P47871 26-477): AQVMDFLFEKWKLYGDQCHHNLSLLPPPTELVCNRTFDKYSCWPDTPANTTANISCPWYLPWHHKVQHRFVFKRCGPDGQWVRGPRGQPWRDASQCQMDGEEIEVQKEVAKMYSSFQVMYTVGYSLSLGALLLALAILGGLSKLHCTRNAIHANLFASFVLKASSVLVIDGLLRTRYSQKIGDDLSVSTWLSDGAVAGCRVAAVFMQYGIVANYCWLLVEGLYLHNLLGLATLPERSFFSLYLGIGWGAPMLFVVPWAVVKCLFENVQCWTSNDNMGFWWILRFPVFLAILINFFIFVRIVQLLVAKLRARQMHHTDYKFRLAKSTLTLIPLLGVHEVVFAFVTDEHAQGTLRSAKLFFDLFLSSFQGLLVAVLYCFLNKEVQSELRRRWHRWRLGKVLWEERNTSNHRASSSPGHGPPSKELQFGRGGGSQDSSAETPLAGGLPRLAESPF

human GLP-1R = human GLP-1R (Homo sapiens, UniProt P43220); experiment: Peptide-receptor mediated cAMP accumulation (LANCE Ultra cAMP) in CHO-K1 cells transfected with human GLP-1R; format: cell-based; conditions: hGLP1 pEC50 (cAMP mean (n = 3): 11 point curve starting at 1 nM, Table 3)
Chain of human GLP-1R (P43220 24-463): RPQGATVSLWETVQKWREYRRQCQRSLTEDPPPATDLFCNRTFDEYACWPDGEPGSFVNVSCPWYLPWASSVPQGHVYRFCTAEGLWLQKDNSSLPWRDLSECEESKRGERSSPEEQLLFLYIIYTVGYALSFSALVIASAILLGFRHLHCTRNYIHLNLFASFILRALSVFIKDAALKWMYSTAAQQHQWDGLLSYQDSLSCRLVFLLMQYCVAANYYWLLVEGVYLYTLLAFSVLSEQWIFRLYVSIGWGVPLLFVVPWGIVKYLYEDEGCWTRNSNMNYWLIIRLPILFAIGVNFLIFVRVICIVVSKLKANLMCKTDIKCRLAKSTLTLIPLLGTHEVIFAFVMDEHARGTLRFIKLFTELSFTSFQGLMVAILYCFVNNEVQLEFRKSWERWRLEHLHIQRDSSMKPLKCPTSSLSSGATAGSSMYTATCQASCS

Compound	EC50 (human GCGR) [nM]	EC50 (human GLP-1R) [nM]
CC(C)C[C@H](NC(=O)[C@H](Cc1ccc(O)cc1)NC(=O)[C@H](CCCCN)NC(=O)[C@H](CO)NC(=O)[C@H](Cc1ccc(O)cc1)NC(=O)[C@H](CC(=O)O)NC(=O)[C@H](CO)NC(=O)[C@@H](NC(=O)[C@H](Cc1ccccc1)NC(=O)[C@@H](NC(=O)CNC(=O)[C@H](Cc1c[nH]cn1)NC(=O)[C@H](CO)NC(=O)[C@@H](N)Cc1ccc(O)cc1)[C@@H](C)O)[C@@H](C)O)C(=O)N[C@@H](CC(=O)O)C(=O)N[C@@H](CO)C(=O)N[C@@H](C)C(=O)N[C@@H](CCCNC(=N)N)C(=O)N[C@@H](C)C(=O)N[C@@H](CCC(N)=O)C(=O)N[C@@H](CCC(=O)O)C(=O)N[C@@H](Cc1ccccc1)C(=O)N[C@H](C(=O)N[C@@H](CCCCN)C(=O)N[C@@H](Cc1c[nH]c2ccccc12)C(=O)N[C@@H](CC(C)C)C(=O)N[C@@H](CCC(=O)O)C(=O)N[C@@H](CC(=O)O)C(=O)N[C@@H](CCC(=O)O)C(=O)N1CCC[C@H]1C(=O)N[C@@H](CCCCN)C(=O)N[C@@H](CO)C(=O)N[C@@H](CCCCN)C(=O)N[C@@H](C)C(=O)N1CCC[C@H]1C(=O)N1CCC[C@H]1C(=O)N1CCC[C@H]1C(=O)N[C@@H](CO)C(N)=O)C(C)C [Compound A74] (H-YSHGTFTSDYSKYLDSARAQEFVKWLEDEPKSKAPPPS-NH2; N-terminus assumed)	0.00251	> 1
CC(C)C[C@H](NC(=O)[C@H](Cc1ccc(O)cc1)NC(=O)[C@H](CCCCN)NC(=O)[C@H](CO)NC(=O)[C@H](Cc1ccc(O)cc1)NC(=O)[C@H](CC(=O)O)NC(=O)[C@H](CO)NC(=O)[C@@H](NC(=O)[C@H](Cc1ccccc1)NC(=O)[C@@H](NC(=O)CNC(=O)[C@H](Cc1c[nH]cn1)NC(=O)[C@H](CO)NC(=O)[C@@H](N)Cc1c[nH]c2ccccc12)[C@@H](C)O)[C@@H](C)O)C(=O)N[C@@H](CC(=O)O)C(=O)NC(C)(C)C(=O)N[C@@H](CCCCN)C(=O)N[C@@H](CCCNC(=N)N)C(=O)N[C@@H](C)C(=O)N[C@@H](CCC(N)=O)C(=O)N[C@@H](CCC(=O)O)C(=O)N[C@@H](Cc1ccccc1)C(=O)N[C@H](C(=O)NC(C)(C)C(=O)N[C@@H](Cc1c[nH]c2ccccc12)C(=O)N[C@@H](CC(C)C)C(=O)N[C@@H](CCC(=O)O)C(=O)N[C@@H](CC(=O)O)C(=O)N[C@@H](CCC(=O)O)C(=O)N1CCC[C@H]1C(=O)N[C@@H](CO)C(=O)N[C@@H](CO)C(=O)NCC(=O)N[C@@H](C)C(=O)N1CCC[C@H]1C(=O)N1CCC[C@H]1C(=O)N1CCC[C@H]1C(=O)N[C@@H](CO)C(=O)O)C(C)C [Compound A75] (H-WSHGTFTSDYSKYLD[Aib]KRAQEFV[Aib]WLEDEPSSGAPPPS-OH; N-terminus assumed)	0.00501	> 1
CC(C)C[C@H](NC(=O)[C@H](Cc1ccc(O)cc1)NC(=O)[C@H](CCCCN)NC(=O)[C@H](CO)NC(=O)[C@H](Cc1ccc(O)cc1)NC(=O)[C@H](CC(=O)O)NC(=O)[C@H](CO)NC(=O)[C@@H](NC(=O)[C@H](Cc1ccccc1)NC(=O)[C@@H](NC(=O)CNC(=O)[C@H](Cc1c[nH]cn1)NC(=O)[C@H](CO)NC(=O)[C@@H](N)Cc1ccc(O)cc1)[C@@H](C)O)[C@@H](C)O)C(=O)N[C@@H](CC(=O)O)C(=O)NC(C)(C)C(=O)N[C@@H](CCCCN)C(=O)N[C@H](C(=O)N[C@@H](C)C(=O)N[C@@H](CCC(N)=O)C(=O)N[C@@H](CCC(=O)O)C(=O)N[C@@H](Cc1ccccc1)C(=O)N[C@H](C(=O)NC(C)(C)C(=O)N[C@@H](Cc1c[nH]c2ccccc12)C(=O)N[C@@H](CC(C)C)C(=O)N[C@@H](CCC(=O)O)C(=O)N[C@@H](CC(=O)O)C(=O)N[C@@H](CCC(=O)O)C(=O)N1CCC[C@H]1C(=O)N[C@@H](CO)C(=O)N[C@@H](CO)C(=O)NCC(=O)N[C@@H](C)C(=O)N1CCC[C@H]1C(=O)N1CCC[C@H]1C(=O)N1CCC[C@H]1C(=O)N[C@@H](CO)C(=O)O)C(C)C)[C@@H](C)O [Compound A77] (H-YSHGTFTSDYSKYLD[Aib]KTAQEFV[Aib]WLEDEPSSGAPPPS-OH; N-terminus assumed)	0.00316	> 1
CC(C)C[C@H](NC(=O)[C@H](CCCCN)NC(=O)C(C)(C)NC(=O)[C@H](CC(=O)O)NC(=O)[C@H](CC(C)C)NC(=O)[C@H](Cc1ccc(O)cc1)NC(=O)[C@H](CCCCN)NC(=O)[C@H](CO)NC(=O)[C@H](Cc1ccc(O)cc1)NC(=O)[C@H](CC(=O)O)NC(=O)[C@H](CO)NC(=O)[C@@H](NC(=O)[C@H](Cc1ccccc1)NC(=O)[C@@H](NC(=O)CNC(=O)[C@H](Cc1c[nH]cn1)NC(=O)[C@H](CO)NC(=O)[C@@H](N)Cc1ccc(O)cc1)[C@@H](C)O)[C@@H](C)O)C(=O)N[C@@H](C)C(=O)N[C@@H](CCC(N)=O)C(=O)N[C@@H](CCC(=O)O)C(=O)N[C@@H](Cc1ccccc1)C(=O)N[C@H](C(=O)NC(C)(C)C(=O)N[C@@H](Cc1c[nH]c2ccccc12)C(=O)N[C@@H](CC(C)C)C(=O)N[C@@H](CCC(=O)O)C(=O)N[C@@H](CC(=O)O)C(=O)N[C@@H](CCC(=O)O)C(=O)N1CCC[C@H]1C(=O)N[C@@H](CO)C(=O)N[C@@H](CO)C(=O)NCC(=O)N[C@@H](C)C(=O)N1CCC[C@H]1C(=O)N1CCC[C@H]1C(=O)N1CCC[C@H]1C(=O)N[C@@H](CO)C(=O)O)C(C)C [Compound A78] (H-YSHGTFTSDYSKYLD[Aib]KLAQEFV[Aib]WLEDEPSSGAPPPS-OH; N-terminus assumed)	0.0158	> 1
CC(C)C[C@H](NC(=O)[C@H](Cc1ccc(O)cc1)NC(=O)[C@H](CCCCN)NC(=O)[C@H](CO)NC(=O)[C@H](Cc1ccc(O)cc1)NC(=O)[C@H](CC(=O)O)NC(=O)[C@H](CO)NC(=O)[C@@H](NC(=O)[C@H](Cc1ccccc1)NC(=O)[C@@H](NC(=O)CNC(=O)[C@H](Cc1c[nH]cn1)NC(=O)[C@H](CO)NC(=O)[C@@H](N)Cc1ccc(O)cc1)[C@@H](C)O)[C@@H](C)O)C(=O)N[C@@H](CC(=O)O)C(=O)NC(C)(C)C(=O)N[C@@H](CCCCN)C(=O)N[C@@H](CCC(=O)O)C(=O)N[C@@H](C)C(=O)N[C@@H](CCC(N)=O)C(=O)N[C@@H](CCC(=O)O)C(=O)N[C@@H](Cc1ccccc1)C(=O)N[C@H](C(=O)NC(C)(C)C(=O)N[C@@H](Cc1c[nH]c2ccccc12)C(=O)N[C@@H](CC(C)C)C(=O)N[C@@H](CCC(=O)O)C(=O)N[C@@H](CC(=O)O)C(=O)N[C@@H](CCC(=O)O)C(=O)N1CCC[C@H]1C(=O)N[C@@H](CO)C(=O)N[C@@H](CO)C(=O)NCC(=O)N[C@@H](C)C(=O)N1CCC[C@H]1C(=O)N1CCC[C@H]1C(=O)N1CCC[C@H]1C(=O)N[C@@H](CO)C(=O)O)C(C)C [Compound A79] (H-YSHGTFTSDYSKYLD[Aib]KEAQEFV[Aib]WLEDEPSSGAPPPS-OH; N-terminus assumed)	0.0631	> 1
CC(C)C[C@H](NC(=O)[C@H](Cc1ccc(O)cc1)NC(=O)[C@H](CCCCN)NC(=O)[C@H](CO)NC(=O)[C@H](Cc1ccc(O)cc1)NC(=O)[C@H](CC(=O)O)NC(=O)[C@H](CO)NC(=O)[C@@H](NC(=O)[C@H](Cc1ccccc1)NC(=O)[C@@H](NC(=O)CNC(=O)[C@H](CCC(N)=O)NC(=O)[C@H](CO)NC(=O)[C@@H](N)Cc1ccc(O)cc1)[C@@H](C)O)[C@@H](C)O)C(=O)N[C@@H](CC(=O)O)C(=O)N[C@@H](CO)C(=O)N[C@@H](C)C(=O)N[C@@H](CCCNC(=N)N)C(=O)N[C@@H](C)C(=O)N[C@@H](CCC(N)=O)C(=O)N[C@@H](CCC(=O)O)C(=O)N[C@@H](Cc1ccccc1)C(=O)N[C@H](C(=O)N[C@@H](CCCCN)C(=O)N[C@@H](Cc1c[nH]c2ccccc12)C(=O)N[C@@H](CC(C)C)C(=O)N[C@@H](CCC(=O)O)C(=O)N[C@@H](CC(=O)O)C(=O)N[C@@H](CCC(=O)O)C(=O)N1CCC[C@H]1C(=O)N[C@@H](CCCCN)C(=O)N[C@@H](CO)C(=O)N[C@@H](CCCCN)C(=O)N[C@@H](CO)C(=O)N1CCC[C@H]1C(=O)N1CCC[C@H]1C(=O)N1CCC[C@H]1C(=O)N[C@@H](CO)C(=O)O)C(C)C [Compound A81] (H-YSQGTFTSDYSKYLDSARAQEFVKWLEDEPKSKSPPPS-OH; N-terminus assumed)	0.01	> 1
CC(C)C[C@H](NC(=O)[C@H](Cc1ccc(O)cc1)NC(=O)[C@H](CCCCN)NC(=O)[C@H](CO)NC(=O)[C@H](Cc1ccc(O)cc1)NC(=O)[C@H](CC(=O)O)NC(=O)[C@H](CO)NC(=O)[C@@H](NC(=O)[C@H](Cc1ccccc1)NC(=O)[C@@H](NC(=O)CNC(=O)[C@H](CCC(N)=O)NC(=O)[C@H](CO)NC(=O)[C@@H](N)Cc1ccc(O)cc1)[C@@H](C)O)[C@@H](C)O)C(=O)N[C@@H](CC(=O)O)C(=O)N[C@@H](CO)C(=O)N[C@@H](C)C(=O)N[C@@H](CCCNC(=N)N)C(=O)N[C@@H](C)C(=O)N[C@@H](CCC(N)=O)C(=O)N[C@@H](CCC(=O)O)C(=O)N[C@@H](Cc1ccccc1)C(=O)N[C@H](C(=O)N[C@@H](CCCCN)C(=O)N[C@@H](Cc1c[nH]c2ccccc12)C(=O)N[C@@H](CC(C)C)C(=O)N[C@@H](CCC(=O)O)C(=O)N[C@@H](CC(=O)O)C(=O)N[C@@H](CCC(=O)O)C(=O)N1CCC[C@H]1C(=O)N[C@@H](CCCCN)C(=O)N[C@@H](CO)C(=O)N[C@@H](CCCCN)C(=O)N[C@@H](C)C(=O)N1CCC[C@H]1C(=O)N1CCC[C@H]1C(=O)N1CCC[C@H]1C(=O)N[C@@H](CO)C(=O)O)C(C)C [Compound A82] (H-YSQGTFTSDYSKYLDSARAQEFVKWLEDEPKSKAPPPS-OH; N-terminus assumed)	0.01	> 1
